Nine compounds from publication PMC8279415, “Targeting Acute Myelogenous Leukemia Using Potent Human Dihydroorotate Dehydrogenase Inhibitors Based on the 2-Hydroxypyrazolo[1,5-a]pyridine Scaffold: SAR of the Biphenyl Moiety” (Journal of Medicinal Chemistry, 2021) can be followed below.

Values after ≈ are worked out from the molar mass of the structure shown. Like-named read-outs stand apart in the source and are kept apart here. Bounds are passed on as bounds.

The nature of data set [1]: Solubility assay at pH 7.4 in PBS. It is filed as physicochemical. The following applies: for solubility at 24 h: phosphate buffered saline; for solubility at 24 h / solubility in PBS: pH 7.4, 25 °C, LOD 6 μM, 24 h. As for the experimental part:
These suspensions were filtered through a PTFE 0.45 μm filter (VWR), and the solutions were chromatographically analyzed using a PerkinElmer ultrahigh performance liquid chromatography (UHPLC) instrument, equipped with a reverse-phase (RP) C18 Phenomenex column (2.1 mm × 100 mm, 1.7 μm particle size). […] The flow rate was 0.5 mL/min. Standard injection volumes were either 2 or 4 μL for poorly soluble compounds. The detection system was a PerkinElmer diode array detector. The wavelengths that were monitored for each compound were defined according to the compound’s own absorption spectrum. Solubility, expressed as μM concentration of the saturated solution, was calculated via interpolation with external calibration curves that were obtained with solutions of each compound in acetonitrile.

Data set [2] has as its target T1, recombinant hDHODH (Homo sapiens, UniProt Q02127).
T1 construct: made in house; host or cells: E. coli BL21DE3 PyrD
Nature of the data set: hDHODH inhibition assay (DCIP reduction). It is filed as biochemical. As for the experimental part: BL21DE3 PyrD E. coli cells were transformed using the plasmid construct pFN2A–hDHODH (kindly given by Department of Drug Science and Technology, University of Turin, Turin, Italy). The vector produces hDHODH as an N-terminal GST-fusion protein. Cells were grown at 37 °C in LB medium supplemented with 0.1 mM flavin mononucleotide (Cayman Chemical). […] Triton X-100 was added to the lysate, to a final concentration of 1%, before centrifugation at 14 000g for 40 min at 4 °C. The clarified supernatant was incubated with DNase I for 30 min at room temperature, supplemented with 2 mM dithiothreitol (DTT), and filtered through a 0.45 μm syringe filter as previously described by Sainas et al.[18] The GST-fused enzyme was purified from the bacterial lysate using affinity chromatography on immobilized glutathione-Sepharose columns (GE- […]). The GST tag was not cleaved for further analysis. All the reagents used in the protein expression and purification were supplied by Merck/Sigma-Aldrich if not otherwise specified.
The enzymatic inhibition assay was optimized for being performed on a 96-well plate and to achieve higher throughput. For each well of the plate a total volume of 200 μL was used: 5 μL of purified GST-hDHODH; 60 μL of 2,6-dichloroindophenol (DCIP) 50 μM; 20 μL of coenzyme Q10 enzyme 100 μM; 20 μL of dihydroorotate (DHO) 500 μM; Tris-HCl, pH 8, up to a final volume of 200 μL. Inhibitory activity was assessed by monitoring the reduction of DCIP, which is associated with the oxidation of dihydroorotate as catalyzed by the DHODH enzyme. The enzyme was preincubated for 5 min at 37 °C in Tris-HCl, pH 8, with coenzyme Q10, with DCIP (50 μM), and with the compounds to be tested used at different concentrations (final DMSO concentration 0.1% v/v). The reaction was initiated by the addition of DHO (500 μM), and the absorbance kinetic reduction was monitored at λ = 650 nm using a multiplate reader (Tecan, M1000Pro). In order to assess the minimum and maximum absorbance values of the enzymatic reaction, a Min control value was obtained by measuring the absorbance without DHO. Similarly, a Max value was obtained by measuring the absorbance with DHO but no inhibitor. A blank reduction calculation was also performed by measuring the absorbance values using 180 μL of Tris-HCl and 20 μL of coenzyme Q10. The instrument was set to read the absorbance values every 10 s for a total read time of 10 min at 37 °C. […] Values are the mean ± SE of three independent experiments.

A short description of data set [3]: LogD7.4, shake-flask n-octanol/PBS. The following applies: for logD: n-octanol/PBS; for logD / logD at 20 min: pH 7.4; for LogD^7.4 ± SD: n-octanol/PBS pH 7.4, shake-flask; for Log D7.4 ± SD (supplement CSV): supplementary CSV.
Procedure: The partition coefficients between n-octanol and PBS at pH 7.4 (LogD^7.4) were obtained using the shake-flask technique at room temperature. In the shake-flask experiments, 50 mM phosphate buffered saline, pH 7.4, was used as the aqueous phase. The organic (n-octanol) and aqueous phases were mutually saturated by shaking for 4 h. The compounds were solubilized in the buffered aqueous phase at the highest concentration compatible with solubility, and appropriate amounts of n-octanol were added. The two phases were shaken for about 20 min, by which time the partitioning equilibrium of solutes had been reached, and then centrifuged (10 000 rpm, 10 min). The concentration of the solutes was measured in the aqueous phase using a UV spectrophotometer (Varian Cary 50BIO); absorbance values (recorded for each compound at the wavelength of maximum absorption) were interpolated in calibration curves obtained using standard solutions of the compounds (r^2 > 0.99). Each log D value is an average of at least six measurements.
Data set [4] concerns THP1 cells. Nature of the data set: Fixed-concentration screening of differentiation (CD14) and apoptosis (annexin V) in THP1, with or without uridine. Particulars: THP1, 1 μM. It is filed as cell-based, human. As for the experimental part: DMSO (dimethyl sulfoxide) acts as the negative control group as it was used to solubilize hDHODH inhibitors. ∗, ∗∗, ∗∗∗ represent the statistical significance for apoptosis (respectively p < 0.05, < 0.01, and <0.001). #, ##, and ### represent the statistical significance for differentiation (respectively p < 0.05, <0.01, and <0.001). The statistical significance is calculated by comparing the compounds to DMSO.
The statistical significance is calculated by comparing the compounds to DMSO.

Setting [5] is: mean ± SE of three independent experiments, read-out: hDHODH, IC50 ± SE.
[6] abbreviates: supplementary CSV, values differ from Table 2, read-out: hDHODH IC50 ± SE (supplement CSV).

T1 sequence (Q02127 whole entry): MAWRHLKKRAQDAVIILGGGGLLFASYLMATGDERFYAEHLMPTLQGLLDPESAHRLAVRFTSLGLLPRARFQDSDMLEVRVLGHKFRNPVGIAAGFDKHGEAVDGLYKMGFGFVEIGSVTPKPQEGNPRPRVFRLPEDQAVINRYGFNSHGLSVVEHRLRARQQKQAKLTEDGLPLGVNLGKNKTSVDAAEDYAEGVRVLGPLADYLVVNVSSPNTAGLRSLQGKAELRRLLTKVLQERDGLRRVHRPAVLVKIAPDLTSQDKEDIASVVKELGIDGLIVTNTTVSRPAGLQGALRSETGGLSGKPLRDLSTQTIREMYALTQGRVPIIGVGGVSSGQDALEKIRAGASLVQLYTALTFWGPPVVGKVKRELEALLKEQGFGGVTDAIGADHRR

Usually solubility stands for the concentration that dissolves in the medium under given conditions. Low readings indicate a poorly soluble substance, high ones a readily soluble substance. What is called IC50 is the point on the concentration scale where inhibition reaches its midpoint. Broadly, the logD is lipophilicity at a set pH, counting ionised and neutral species. For `O=C(Nc1c(F)c(F)c(-c2ccnc(C(F)(F)F)c2)c(F)c1F)c1c(O)nn2ccccc12` [Compound 9, 2-Hydroxy-N-(2,3,5,6-tetrafluoro-4-(2-(trifluoromethyl)pyridin-4-yl)phenyl)pyrazolo[1,5-a]pyridine-3-carboxamide], in data set [1], the “solubility in PBS relative to 1” value was found to be 1.5 times and the solubility at 24 h was 20.2 µM (≈ 9.5 µg/mL). In data set [2] (setting [5]), the IC50 amounted to 150 ± 15 nM. Besides, the logD in data set [3] was found to be 1.84 ± 0.06. Moreover, in data set [4], the “activity in cells (differentiation and apoptosis)” value was “basically inactive”.
Turning to `O=C(Nc1c(F)c(F)c(N2CCOCC2)c(F)c1F)c1c(O)nn2ccccc12` [Compound 6, 2-Hydroxy-N-(2,3,5,6-tetrafluoro-4-morpholinophenyl)pyrazolo[1,5-a]pyridine-3-carboxamide], the concentration in solution in data set [1] (solubility at 24 h) came to 438 µM (≈ 180 µg/mL). For the same compound, the IC50 in data set [2] (setting [5]) was found to be 90.9 ± 13.1 nM. In addition, the logD in data set [3] came out at 0.66 ± 0.08. In addition, the “activity in cells (differentiation and apoptosis)” value in data set [4] was “basically inactive”.
Regarding `O=C(Nc1c(F)c(F)c(-c2ccccc2)c(F)c1F)c1c(O)nn2c1CCCC2` [Compound 5, 2-Hydroxy-N-(2,3,5,6-tetrafluoro-[1,1′-biphenyl]-4-yl)-4,5,6,7-tetrahydropyrazolo[1,5-a]pyridine-3-carboxamide], in data set [1], the “solubility in PBS” value is “<LOD”. Also, the IC50 in data set [2] (setting [5]) is 5.8 ± 0.4 nM. In addition, the logD at 20 min in data set [3] came out at 2.36 ± 0.02.
Consider `O=C(Nc1c(F)c(F)c(-c2ccc(C(F)(F)F)cc2)c(F)c1F)c1c(O)nn2ccccc12` [Compound 12, 2-Hydroxy-N-(2,3,5,6-tetrafluoro-4′-(trifluoromethyl)-[1,1′-biphenyl]-4-yl)pyrazolo[1,5-a]pyridine-3-carboxamide], for which, in data set [1], the “solubility in PBS” value is on record as “<LOD” and the solubility at 24 h was less than 6 µM. For the same compound, the IC50 in data set [2] (setting [5]) is 71.8 ± 9.42 nM. Further, the IC50 in data set [2] (setting [6]) is 29.6 ± 3.2 nM. In data set [3], the “LogD^7.4 ± SD” value is “insoluble” and the “Log D7.4 ± SD (supplement CSV)” value was “Insoluble”.
Regarding `O=C(Nc1c(F)c(F)c(-c2cccs2)c(F)c1F)c1c(O)nn2ccccc12` [Compound 7, 2-Hydroxy-N-(2,3,5,6-tetrafluoro-4-(thiophen-2-yl)phenyl)pyrazolo[1,5-a]pyridine-3-carboxamide], the IC50 stood at 1.35 ± 0.45 nM in data set [2] (setting [5]) and 1.37 ± 0.1 nM in data set [2] (setting [6]).
As for `O=C(Nc1c(F)c(F)c(-c2cccc(O)c2)c(F)c1F)c1c(O)nn2ccccc12` [Compound 14, 2-Hydroxy-N-(2,3,5,6-tetrafluoro-3′-hydroxy-[1,1′-biphenyl]-4-yl)pyrazolo[1,5-a]pyridine-3-carboxamide], in data set [1], the “solubility in PBS relative to 1” value is listed as “around 5 times” and the concentration in solution (solubility at 24 h) was 55.3 µM (≈ 23.1 µg/mL). In data set [2] (setting [5]), the IC50 amounted to 2.78 ± 0.32 nM. In addition, the IC50 in data set [2] (setting [6]) came to 2 ± 0.67 nM. The pH-dependent lipophilicity (logD) in data set [3] stood at 1.82 ± 0.09. For the same compound, the “activity in cells (differentiation and apoptosis)” value in data set [4] was “basically inactive”.
On to `O=C(Nc1c(F)c(F)c(-c2ccc(F)cc2)c(F)c1F)c1c(O)nn2ccccc12` [Compound 10, 2-Hydroxy-N-(2,3,4′,5,6-pentafluoro-[1,1′-biphenyl]-4-yl)pyrazolo[1,5-a]pyridine-3-carboxamide], for which, in data set [1], the “solubility in PBS” value is recorded as “<LOD” and the solubility at 24 h is less than 6 µM. Moreover, in data set [2] (setting [5]), the IC50 came to 17.7 ± 3.3 nM. Further, the concentration for half-maximal inhibition (IC50) in data set [2] (setting [6]) worked out at 8.32 ± 1.36 nM. Besides, in data set [3], the “LogD^7.4 ± SD” value is given as “insoluble” and the “Log D7.4 ± SD (supplement CSV)” value is listed as “Insoluble”.
As for `Cc1cccc2c(C(=O)Nc3c(F)c(F)c(-c4ccccc4)c(F)c3F)c(O)nn12` [Compound 2], the IC50 in data set [2] (setting [5]) was 4.3 ± 0.5 nM.
On to `O=C(Nc1c(F)c(F)c(-c2ccccc2)c(F)c1F)c1c(O)nn2c(Cl)cccc12` [Compound 4, 7-Chloro-2-hydroxy-N-(2,3,5,6-tetrafluoro-[1,1′-biphenyl]-4-yl)pyrazolo[1,5-a]pyridine-3-carboxamide], for which the “solubility in PBS” value in data set [1] is “<LOD”. The IC50 in data set [2] (setting [5]) came out at 3.4 ± 0.5 nM. The logD at 20 min in data set [3] came out at 2.81 ± 0.13.
